ChEMBL document CHEMBL5154867, “Baylis-Hillman Adducts as a Versatile Module for Constructing Fluorogenic Release System” (J Med Chem, 2022)

Experiments:
[1] = Prodrug activation in PBS at pH 7.4 assessed as drug release at 10 uM in presence of 2 mM GSH measured after 60 mins by HPLC analysis relative to control; conditions: buffer, pH 7.4, 1 h
[2] = Prodrug activation in PBS at pH 7.4 assessed as drug release at 10 uM in presence of 2 mM GSH measured after 30 mins by HPLC analysis relative to control; conditions: buffer, pH 7.4, 0.5 h
[3] = Prodrug activation in PBS at pH 7.4 assessed as drug release by measuring maximal fluorescence change at 10 uM in presence of 2 mM GSH measured immediately relative to control; conditions: buffer, pH 7.4, 10 µM
[4] = Prodrug activation in PBS at pH 7.4 assessed as drug release by measuring maximal fluorescence change at 10 uM in presence of 2 mM GSH measured after 20 mins relative to control; conditions: buffer, pH 7.4, 20 min
[5] = Prodrug activation in PBS at pH 7.4 assessed as drug release by measuring maximal fluorescence change at 10 uM in presence of 2 mM GSH measured after 60 mins relative to control; conditions: buffer, pH 7.4, 1 h
[6] = Prodrug activation in PBS at pH 7.4 assessed as drug release at 10 uM in presence of 2 mM GSH measured after 50 mins by HPLC analysis relative to control; conditions: buffer, pH 7.4, 50 min
[7] = Prodrug activation in PBS at pH 7.4 assessed as drug release by measuring maximal fluorescence change at 10 uM in presence of 2 mM GSH measured after 50 mins relative to control; conditions: buffer, pH 7.4, 50 min
[8] = Prodrug activation in PBS at pH 7.4 assessed as drug release by measuring maximal fluorescence change at 10 uM in presence of 2 mM GSH measured after 10 mins relative to control; conditions: buffer, pH 7.4, 10 min
[9] = Prodrug activation in PBS at pH 7.4 assessed as drug release by measuring maximal fluorescence change at 10 uM in presence of 2 mM GSH measured after 30 mins relative to control; conditions: buffer, pH 7.4, 0.5 h
[10] = Prodrug activation in PBS at pH 7.4 assessed as drug release at 10 uM in presence of 2 mM GSH measured after 10 mins by HPLC analysis relative to control; conditions: buffer, pH 7.4, 10 min
[11] = Prodrug activation in PBS at pH 7.4 assessed as drug release at 10 uM in presence of 2 mM GSH measured immediately by HPLC analysis relative to control; conditions: buffer, pH 7.4, 10 µM
[12] = Prodrug activation in PBS at pH 7.4 assessed as drug release at 10 uM in presence of 2 mM GSH measured after 20 mins by HPLC analysis relative to control; conditions: buffer, pH 7.4, 20 min
[13] = Prodrug activation in PBS at pH 7.4 assessed as drug release by measuring maximal fluorescence change at 10 uM in presence of 2 mM GSH measured after 40 mins relative to control; conditions: buffer, pH 7.4, 40 min
[14] = Prodrug activation in PBS at pH 7.4 assessed as drug release at 10 uM in presence of 2 mM GSH measured after 40 mins by HPLC analysis relative to control; conditions: buffer, pH 7.4, 40 min
[15] = Prodrug activation in PBS at pH 7.4 assessed as drug release at 10 uM in presence of 1 mM GSH measured immediately by HPLC analysis relative to control; conditions: buffer, pH 7.4, 10 µM
[16] = Prodrug activation in PBS at pH 7.4 assessed as drug release at 10 uM in presence of 1 mM GSH measured after 50 mins by HPLC analysis relative to control; conditions: buffer, pH 7.4, 50 min
[17] = Prodrug activation in PBS at pH 7.4 assessed as drug release by measuring maximal fluorescence change at 10 uM in presence of 1 mM GSH measured after 10 mins relative to control; conditions: buffer, pH 7.4, 10 min
[18] = Prodrug activation in PBS at pH 7.4 assessed as drug release by measuring maximal fluorescence change at 10 uM in presence of 1 mM GSH measured after 30 mins relative to control; conditions: buffer, pH 7.4, 0.5 h
[19] = Prodrug activation in PBS at pH 7.4 assessed as drug release at 10 uM in presence of 1 mM GSH measured after 60 mins by HPLC analysis relative to control; conditions: buffer, pH 7.4, 1 h
[20] = Prodrug activation in PBS at pH 7.4 assessed as drug release by measuring maximal fluorescence change at 10 uM in presence of 1 mM GSH measured immediately relative to control; conditions: buffer, pH 7.4, 10 µM
[21] = Prodrug activation in PBS at pH 7.4 assessed as drug release by measuring maximal fluorescence change at 10 uM in presence of 1 mM GSH measured after 20 mins relative to control; conditions: buffer, pH 7.4, 20 min
[22] = Prodrug activation in PBS at pH 7.4 assessed as drug release by measuring maximal fluorescence change at 10 uM in presence of 1 mM GSH measured after 40 mins relative to control; conditions: buffer, pH 7.4, 40 min
[23] = Prodrug activation in PBS at pH 7.4 assessed as drug release by measuring maximal fluorescence change at 10 uM in presence of 1 mM GSH measured after 60 mins relative to control; conditions: buffer, pH 7.4, 1 h
[24] = Prodrug activation in PBS at pH 7.4 assessed as drug release at 10 uM in presence of 1 mM GSH measured after 10 mins by HPLC analysis relative to control; conditions: buffer, pH 7.4, 10 min
[25] = Prodrug activation in PBS at pH 7.4 assessed as drug release by measuring maximal fluorescence change at 10 uM in presence of 1 mM GSH measured after 50 mins relative to control; conditions: buffer, pH 7.4, 50 min
[26] = Prodrug activation in PBS at pH 7.4 assessed as drug release at 10 uM in presence of 1 mM GSH measured after 20 mins by HPLC analysis relative to control; conditions: buffer, pH 7.4, 20 min
[27] = Prodrug activation in PBS at pH 7.4 assessed as drug release at 10 uM in presence of 1 mM GSH measured after 40 mins by HPLC analysis relative to control; conditions: buffer, pH 7.4, 40 min
[28] = Prodrug activation in PBS at pH 7.4 assessed as drug release at 10 uM in presence of 1 mM GSH measured after 30 mins by HPLC analysis relative to control; conditions: buffer, pH 7.4, 0.5 h
[29] = Prodrug activation in PBS at pH 7.4 assessed as drug release by measuring maximal fluorescence change at 10 uM in presence of 2 mM GSH measured after 60 to 300 mins relative to control; conditions: buffer, pH 7.4, 10 µM, time 60-300 min
[30] = Prodrug activation in PBS at pH 7.4 assessed as drug release at 10 uM in presence of 2 mM GSH measured after 60 to 300 mins by HPLC analysis relative to control; conditions: buffer, pH 7.4, 10 µM, time 60-300 min

Compound | Activity [15] [%] | Activity [16] [%] | Activity [17] [%] | Activity [18] [%] | Activity [19] [%] | Activity [20] [%] | Activity [21] [%] | Activity [22] [%] | Activity [23] [%] | Activity [24] [%] | Activity [25] [%] | Activity [26] [%] | Activity [27] [%] | Activity [28] [%] | further results
C=C(COC(=O)c1ccccc1)C(=O)c1ccc2cc(N(C)C)ccc2c1 |  |  |  |  |  |  |  |  |  |  |  |  |  |  | Activity [1]: 72.1%; Activity [2]: 98.6%; Activity [3]: 1.4%; Activity [4]: 71.2%; Activity [5]: 83.2%; Activity [6]: 99.9%; Activity [7]: 97.8%; Activity [8]: 40.1%; Activity [9]: 88.1%; Activity [10]: 92.8%; Activity [11]: 0%; Activity [12]: 97.3%; Activity [13]: 95.7%; Activity [14]: 98.7%
C=C(COC(=O)Cc1ccccc1)C(=O)c1ccc2cc(N(C)C)ccc2c1 | 0 | 98.7 | 42.4 | 89.2 | 99.1 | 1.2 | 71.5 | 95.3 | 98.1 | 94.3 | 97.7 | 97.1 | 97.5 | 98.3 | 
C=C(COC(=O)OCc1ccccc1)C(=O)c1ccc2cc(N(C)C)ccc2c1 | 0 | 94.6 | 41 | 83.6 | 95.1 | 3.9 | 65.4 | 96.5 | 97.4 | 93.4 | 96.5 | 94.5 | 94.6 | 95.5 | 
C=C(CSCc1ccccc1)C(=O)c1ccc2cc(N(C)C)ccc2c1 |  |  |  |  |  |  |  |  |  |  |  |  |  |  | Activity [2]: 19.9%; Activity [3]: 4.8%; Activity [4]: 22.1%; Activity [29]: 98.6%; Activity [30]: 99.9%; Activity [6]: 68.6%; Activity [7]: 78.3%; Activity [8]: 14.8%; Activity [9]: 27.5%; Activity [10]: 5.6%; Activity [11]: 0%; Activity [12]: 13.9%; Activity [13]: 42.2%; Activity [14]: 35.2%
C=C(CN(C)Cc1ccccc1)C(=O)c1ccc2cc(N(C)C)ccc2c1 | 0 | 93.1 | 50.5 | 85.1 | 92.4 | 3.8 | 72.5 | 93.5 | 97.1 | 88.2 | 96.5 | 91.8 | 92 | 92.2 | 
C=C(CSc1ccccc1)C(=O)c1ccc2cc(N(C)C)ccc2c1 | 0 | 94.8 | 27.2 | 72.2 | 95.4 | 3.1 | 53.5 | 86.3 | 96.5 | 42.6 | 93.7 | 76.6 | 95.1 | 90.6 | 
C=C(C[N+](C)(C)Cc1ccccc1)C(=O)c1ccc2cc(N(C)C)ccc2c1.[Br-] | 0 | 99.6 | 48.1 | 90.6 | 98.9 | 0.5 | 90.6 | 97.2 | 99 | 95.6 | 98.4 | 97.8 | 98.5 | 98.2 | 
C=C(COc1ccccc1)C(=O)c1ccc2cc(N(C)C)ccc2c1 | 0 | 93.2 | 38.8 | 87.9 | 93.5 | 0.7 | 70.1 | 95.5 | 99.1 | 91.2 | 97.3 | 93.5 | 92.7 | 93.5 | 
C=C(COC(=O)Nc1ccccc1)C(=O)c1ccc2cc(N(C)C)ccc2c1 | 0 | 97.9 | 39.3 | 79.9 | 98.2 | 2.7 | 64.6 | 88.9 | 96.5 | 82.6 | 94.6 | 91.1 | 97.1 | 96.5 | 
